Experimental findings from patent US9451771B2, “Compositions and methods to attract the brown marmorated stink bug (BMSB), Halyomorpha halys” (United States of America as Represented by the Secretary of …, priority 2012, dated 2016) are described below.

The test system of the assay is brown marmorated stink bug (BMSB), Halyomorpha halys. As to the kind of experiment: Field trials of experimental pheromone constituents, baited black pyramid traps. The class given is in vivo. Particulars: for field attractiveness to BMSB (in words): 2011-2012 field trapping. The text has this: Field Bioassays. Field Trials of Experimental Pheromone Constituents: Pyramid traps based on dimensions previously used for native stink bugs (Leskey and Hogmire 2005, Hogmire and Leskey 2006) and for brown marmorated stink bugs (Leskey et al. 2012c) were used for all trials. […] Each panel was 1.22 m high, 52 cm wide at the base, and 7 cm wide at the top. Collection jars were constructed based on previously published dimensions (Hogmire and Leskey 2006) with internal cone opening of 1.6 cm with trimmed wire edging to reduce escape. In addition, a Hercon Vaportape™ II (Hercon Environmental, Emigsville, Pa.) was added as a killing agent to prevent escape from traps. In a preliminary study, addition of a killing agent increased trap captures ˜250%. Traps were deployed ˜5 meters from the border of apple and pear orchards at the Appalachian Fruit Research Station or in the border area between wood lots and row crops in Kearneysville, W. Va., Shepherdstown, W. Va., Keedysville, Md., and Beltsville, Md. Traps were spaced ˜50 meters apart. Traps were baited with compounds identified from headspace collections of male BMSB, synthesized and formulated into gray rubber septa or left unbaited.
Fourteen trials were conducted between 19 Apr. to 20 Oct. 2011 (Table 3) and four trials between 20 Mar. to 10 Oct. 2012 (Table 4). Traps were checked a minimum of twice weekly and the treatments were re-randomized at each collection.
All adults and nymphs were removed from traps and recorded. Hercon Vaportape™ strips were changed at four week intervals and lures were changed at two week intervals. Comparisons of adult and nymphal captures used the SAS GLM procedure to evaluate effect of treatment and replicate followed by Tukey's HSD if the model was significant. Appropriate transformations were used to stabilize normality if needed. The effect of sex was dropped from all models because it was never a significant factor.

Setting [1] is: AFRS 2012, Trial Four, 22 September-10 October.
Where [2] appears, read: AFRS 2012, Trial Three, 14 August-13 September.
Setting [3] is: Beltsville 2012, Trial Four, 17 September-2 October.
Setting [4] is: Beltsville 2012, Trial Three, 14 August-11 September.
Where [5] appears, read: AFRS 2012, Trial Two, 31 July-14 August.
The mark [6] stands for this setting: Beltsville 2012, Trial Two, 1-14 August.
Where [7] appears, read: AFRS 2011, Trial Eight, 11 August-6 Sept.
Setting [8] is: AFRS 2011, Trial One, 19 April-10 May.
The mark [9] stands for this setting: Beltsville 2011, Trial Eight, 11 August-6 Sept.
[10] abbreviates: Beltsville 2011, Trial One, 19 April-10 May.

Consider `C[C@H](CC[C@@H]1OC1(C)C)[C@H]1C=C[C@@](C)(O)CC1` [Lure #22, (3S,6S,7R,10S)-10,11-epoxy-1-bisabolen-3-ol], for which the “field attractiveness to BMSB (in words)” value is recorded as “more attractive than #23”. In addition, the “field attractiveness to BMSB (in words)” value (listed as stereoisomer 1) was “attracted BMSB females, males, and nymphs”. Also, under setting [1], the “Mean number BMSB adults (±SE) captured” value was determined as 1.36 ± 0.59bc per treatment and the “Mean number BMSB nymphs (±SE) captured” value amounted to 0.80 ± 0.57 per treatment. For the same molecule, under setting [2], the “Mean number BMSB adults (±SE) captured” value came to 2.73 ± 0.50d per treatment and the “Mean number BMSB nymphs (±SE) captured” value stood at 7.30 ± 2.02bc per treatment. Moreover, under setting [3], the “Mean number BMSB adults (±SE) captured” value was found to be 5.05 ± 1.01a per treatment and the “Mean number BMSB nymphs (±SE) captured” value is given as 0.15 ± 0.11 per treatment. Further, under setting [4], the “Mean number BMSB adults (±SE) captured” value was determined as 2.65 ± 0.44a per treatment and the “Mean number BMSB nymphs (±SE) captured” value was found to be 21.90 ± 6.49ab per treatment.
With `C[C@H](CC[C@@H]1OC1(C)C)[C@H]1C=C[C@](C)(O)CC1` [Lure #18, (3R,6S,7R,10S)-10,11-epoxy-1-bisabolen-3-ol], the “field attractiveness to BMSB (in words)” value was “moderately attractive”. Under setting [1], the “Mean number BMSB adults (±SE) captured” value was 2.48 ± 0.70abc per treatment and the “Mean number BMSB nymphs (±SE) captured” value came out at 0.60 ± 0.37 per treatment. Besides, under setting [5], the “Mean number BMSB adults (±SE) captured” value worked out at 0.90 ± 0.38bc per treatment and the “Mean number BMSB nymphs (±SE) captured” value was determined as 6.50 ± 2.08ab per treatment. Under setting [3], the “Mean number BMSB adults (±SE) captured” value stood at 4.15 ± 1.17a per treatment and the “Mean number BMSB nymphs (±SE) captured” value was determined as 0.05 ± 0.05 per treatment. Further, under setting [6], the “Mean number BMSB adults (±SE) captured” value is 0.35 ± 0.13ab per treatment and the “Mean number BMSB nymphs (±SE) captured” value was 23.45 ± 9.95 per treatment.
Turning to `C[C@H](CC[C@@H]1OC1(C)C)[C@@H]1C=C[C@](C)(O)CC1` [Lure #17, (3R,6R,7R,10S)-10,11-epoxy-1-bisabolen-3-ol], under setting [5], the “Mean number BMSB adults (±SE) captured” value worked out at 0.40 ± 0.40bc per treatment and the “Mean number BMSB nymphs (±SE) captured” value is 7.15 ± 2.65ab per treatment. In addition, under setting [6], the “Mean number BMSB adults (±SE) captured” value came to 0.20 ± 0.12ab per treatment and the “Mean number BMSB nymphs (±SE) captured” value stood at 20.30 ± 8.61 per treatment.
`CC1=C[C@H](O)[C@@H]([C@@H](C)CC[C@@H]2OC2(C)C)CC1` [Lure #1, (3R,6R,7S,10S)-10,11-epoxy-1-bisabolen-3-ol]: the “field attractiveness to BMSB (in words)” value is “inactive”. Under setting [7], the “Mean number BMSB adults (±SE) captured” value is recorded as 3.08 ± 0.55b per trap per sample and the “Mean number BMSB nymphs (±SE) captured” value came to 14.63 ± 6.06 per trap per sample. Moreover, under setting [8], the “Mean number BMSB adults (±SE) captured” value was 0.03 ± 0.03 per trap per sample and the “Mean number BMSB nymphs (±SE) captured” value is reported as 0.00 ± 0.00 per trap per sample. In addition, under setting [9], the “Mean number BMSB adults (±SE) captured” value came to 0.55 ± 0.13ab per treatment and the “Mean number BMSB nymphs (±SE) captured” value amounted to 3.49 ± 0.67 per treatment. Further, under setting [10], the “Mean number BMSB adults (±SE) captured” value is listed as 0.00 ± 0.20b per treatment and the “Mean number BMSB nymphs (±SE) captured” value is reported as 0.00 ± 0.00 per treatment.
For the molecule `C[C@H](CC[C@H]1OC1(C)C)[C@@H]1C=C[C@](C)(O)CC1` [Lure #23, (3R,6R,7R,10R)-10,11-epoxy-1-bisabolen-3-ol], the “field attractiveness to BMSB (in words)” value is reported as “not attractive”. Besides, under setting [2], the “Mean number BMSB adults (±SE) captured” value is listed as 0.75 ± 0.29e per treatment and the “Mean number BMSB nymphs (±SE) captured” value came to 2.50 ± 0.53c per treatment. In addition, under setting [4], the “Mean number BMSB adults (±SE) captured” value was 0.90 ± 0.26b per treatment and the “Mean number BMSB nymphs (±SE) captured” value was 8.38 ± 2.90bc per treatment.
